Data: US20050004163A1, “3-(diarylmethylene)-8-azabicyclo[3.2.1]octane derivatives” (priority 2000, published 2005)
Where a name gives a salt, the structure may show the parent alone.

biological target: T1, μ-opioid receptor (Rattus norvegicus, UniProt P33535); experiment: Rat brain μ-opioid receptor binding assay ([3H]DAMGO); conditions: 10 nM solutions of the compounds, read-out: MOR binding Ki
T1 construct: the forebrains are homogenized in Tris buffer in a Teflon®-glass homogenizer; from tissue; host or cells: forebrain of male Wistar rats (particulate membrane preparation)
T1 sequence (P33535 whole entry): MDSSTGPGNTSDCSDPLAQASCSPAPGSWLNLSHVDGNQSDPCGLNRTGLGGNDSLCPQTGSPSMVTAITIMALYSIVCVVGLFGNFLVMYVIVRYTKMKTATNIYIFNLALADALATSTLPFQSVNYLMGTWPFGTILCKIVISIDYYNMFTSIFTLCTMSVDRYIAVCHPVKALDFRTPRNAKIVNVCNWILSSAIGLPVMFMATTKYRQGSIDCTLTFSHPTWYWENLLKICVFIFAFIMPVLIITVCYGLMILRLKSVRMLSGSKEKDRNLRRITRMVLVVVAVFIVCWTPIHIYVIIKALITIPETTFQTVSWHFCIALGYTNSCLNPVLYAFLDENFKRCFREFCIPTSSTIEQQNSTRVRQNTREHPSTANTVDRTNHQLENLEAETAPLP
Outline: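 Rat forebrain membranes from male Wistar rats, prepared in 50 mM Tris HCl pH 7.4, used for [3H]DAMGO binding. Filter-bound radioactivity measured by scintillation counting.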

Row | SMILES | Ki [nM]
1 | CCNC(=O)c1ccc(C(=C2CC3CCC(C2)N3Cc2ccco2)c2ccc([N+](=O)[O-])cc2)cc1 [Cpd 123] | 34.2
2 | CCN(CC)C(=O)c1ccc(C=C2CC3CCC(C2)N3Cc2ccsc2)cc1 [Cpd 52] | 6490
3 | CCNC(=O)c1ccc(C(=C2CC3CCC(C2)N3Cc2ccsc2)c2cnc3ccccc3c2)cc1 [Cpd 15] | 127
4 | CCNC(=O)c1ccc(C(=C2CC3CCC(C2)N3Cc2ccsc2)c2ccc(CO)cc2)cc1 (single isomer, unassigned) [Cpd 206] | 80.1
5 | CCNC(=O)c1ccc(C(Br)=C2CC3CCC(C2)N3Cc2ccc3ccccc3n2)cc1 [Cpd 25] | 95
6 | CCNC(=O)c1ccc(C=C2CC3CCC(C2)N3Cc2ccncc2)cc1 [Cpd 58] | 1180
7 | CCNC(=O)c1ccc(C=C2CC3CCC(C2)N3Cc2ncc[nH]2)cc1 [Cpd 32] | 385
8 | CCNC(=O)c1ccc(C(=C2CC3CCC(C2)N3Cc2ccccn2)c2ccc(C(N)=O)cc2)cc1 [Cpd 183] | 5050
9 | CCNC(=O)c1ccc(C(=C2CC3CCC(C2)N3Cc2ccc(C(=O)O)o2)c2ccccc2)cc1 [Cpd 95] | 421
10 | CCNC(=O)c1ccc(C=C2CC3CCC(C2)N3Cc2sc3ccccc3c2C)cc1 [Cpd 78] | 271
11 | CCNC(=O)c1ccc(C(=C2CC3CCC(C2)N3CC=C(C)C)c2cccc(C(=O)O)c2)cc1 (single isomer, unassigned) [Cpd 44] | 58.3

same assay, conditions: MOR binding Ki

Row | SMILES | Ki [nM]
12 | CCNC(=O)c1ccc(C=C2CC3CCC(C2)N3CCC(C(=O)N(C)C)(c2ccccc2)c2ccccc2)cc1 [Cpd 107, 4-[8-(3-Dimethylcarbamoyl-3,3-diphenyl-propyl)-8-aza-bicyclo[3.2.1]oct-3-ylidenemethyl]-N-ethyl-benzamide] | 22.8
13 | CNC(=O)c1ccc(C=C2CC3CCC(C2)N3)cc1 [Cpd 103, 4-(8-Aza-bicyclo[3.2.1]oct-3-ylidenemethyl)-N-methyl-benzamide] | 10600
14 | CCNC(=O)c1ccc(C(=C2CC3CCC(C2)N3CC(=O)c2cc(C(=O)c3ccc(Cl)cc3)cn2C)c2ccccc2)cc1 [Cpd 88, 4-[(8{2-[4-(4-Chloro-benzoyl)-1-methyl-1H-pyrrol-2-yl]-2-oxo-ethyl}-8-azabicyclo[3.2.1]oct-3-ylidene)-phenyl-methyl]-N-ethyl-benzamide] | 551
15 | CCNC(=O)c1ccc(C(=C2CC3CCC(C2)N3Cc2ccco2)c2nnn[nH]2)cc1 [Cpd 146] | 15.2
16 | CCNC(=O)c1ccc(C(=C2CC3CCC(C2)N3CC=C(C)C)c2ccc([N+](=O)[O-])cc2)cc1 [Cpd 136] | 3.03
17 | CCNC(=O)c1ccc(C(=C2CC3CCC(C2)N3CCc2ccccc2)c2cc(N)cc(C(=O)O)c2)cc1 [Cpd 116] | 1510
18 | CCNC(=O)c1ccc(C(=C2CC3CCC(C2)N3Cc2ccc(NC(C)=O)cc2)c2cccc(C(=O)O)c2)cc1 [Cpd 84] | 5660
19 | CCNC(=O)c1ccc(C(=C2CC3CCC(C2)N3Cc2nccs2)c2ccc(CO)cc2)cc1 [Cpd 195] | 64.2
20 | CCNC(=O)c1ccc(C(=C2CC3CCC(C2)N3Cc2ccccn2)c2cccc(C(=O)O)c2)cc1 [Cpd 82] | 375
21 | CCNC(=O)c1ccc(C(=C2CC3CCC(C2)N3Cc2ccoc2)c2cc(N)cc(C(=O)O)c2)cc1 [Cpd 110] | 9140
22 | CCNC(=O)c1ccc(C(Br)=C2CC3CCC(C2)N3Cc2ncc[nH]2)cc1 [Cpd 22] | 58.5
23 | CCNC(=O)c1ccc(C(=C2CC3CCC(C2)N3Cc2nccs2)c2cc(N)cc(C(=O)O)c2)cc1 [Cpd 118] | 10000
24 | CCNC(=O)c1ccc(C(=C2CC3CCC(C2)N3C(=O)c2ccccn2)c2cccnc2)cc1 [Cpd 213] | 10000
25 | CCNC(=O)c1ccc(C(=C2CC3CCC(C2)N3CCN2CCN(C(=O)OC)CC2)c2ccccc2)cc1 [Cpd 91, 4-(2-{3-[(4-Ethylcarbamoylphenyl)-phenylmethylene]-8-azabicyclo[3.2.1]oct-8-yl}-ethyl)piperazine-1-carboxylic acid methyl ester] | 175
26 | CCNC(=O)c1ccc(C(=C2CC3CCC(C2)N3Cc2ccoc2)c2ccc(C(N)=O)cc2)cc1 [Cpd 177] | 1.34
27 | CCNC(=O)c1ccc(C=C2CC3CCC(C2)N3CCc2ccccc2)cc1 [Cpd 50, N-Ethyl-4-(8-phenethyl-8-aza-bicyclo[3.2.1]oct-3-ylidenemethyl)-benzamide] | 44.3
28 | CCNC(=O)c1ccc(C(=C2CC3CCC(C2)N3Cc2ccsc2)c2cc(C(=O)O)cc([N+](=O)[O-])c2)cc1 [Cpd 161] | 10000

Row | SMILES | Ki [nM]
29 | CCNC(=O)c1ccc(C(C#N)=C2CC3CCC(C2)N3Cc2ccoc2)cc1 (single isomer, unassigned) [Cpd 210] | 2.3
30 | CCNC(=O)c1ccc(C(=C2CC3CCC(C2)N3Cc2cccs2)c2cccc(-c3nnn[nH]3)c2)cc1 [Cpd 168] | 395
31 | CCNC(=O)c1ccc(C(=C2CC3CCC(C2)N3Cc2ccsc2)c2cccc(CN)c2)cc1 [Cpd 162] | 849
32 | CCNC(=O)c1ccc(C(=C2CC3CCC(C2)N3Cc2nccs2)c2ccc(S(N)(=O)=O)cc2)cc1 [Cpd 140] | 217
33 | CCNC(=O)c1ccc(C=C2CC3CCC(C2)N3CC(N)Cc2ccccc2)cc1 (stereo not drawn) [Cpd 1, 4-[8-(2-Amino-3-phenyl-propyl)-8-aza-bicyclo[3.2.1]oct-3-ylidenemethyl]-N-ethyl-benzamide Hydrochloride] | 340
34 | CCNC(=O)c1ccc(C(=C2CC3CCC(C2)N3CCc2ccccc2)c2ccc(C(=O)O)cc2)cc1 [Cpd 99] | 5290
35 | CCNC(=O)c1ccc(C(=C2CC3CCC(C2)N3Cc2cccs2)c2ccc(S(N)(=O)=O)cc2)cc1 [Cpd 141] | 1.05
36 | CCNC(=O)c1ccc(C(=C2CC3CCC(C2)N3Cc2sccc2C)c2ccc3c(c2)OCO3)cc1 [Cpd 12] | 128
37 | CCNC(=O)c1ccc(C(=C2CC3CCC(C2)N3Cc2ccc3ccccc3n2)c2cccnc2)cc1 [Cpd 71] | 14.6
38 | CCNC(=O)c1ccc(C(=C2CC3CCC(C2)N3Cc2ccco2)c2nnn[nH]2)cc1 (single isomer, unassigned) [Cpd 203] | 5450
39 | CCNC(=O)c1ccc(C(=C2CC3CCC(C2)N3Cc2ccc3ccccc3n2)c2ccc(C(=O)O)cc2)cc1 [Cpd 100] | 147
40 | CCNC(=O)c1ccc(C(=C2CC3CCC(C2)N3CC=C(C)C)c2cc(C(=O)O)cc([N+](=O)[O-])c2)cc1 [Cpd 155] | 74.3
41 | CCNC(=O)c1ccc(C(=C2CC3CCC(C2)N3Cc2ccsc2)c2cccc(C(=O)O)c2)cc1 [Cpd 175] | 34.4
42 | CCNC(=O)c1ccc(C(=C2CC3CCC(C2)N3Cc2ccco2)c2cc(N)cc(C(=O)O)c2)cc1 [Cpd 108] | 10000
43 | CCNC(=O)c1ccc(/C(=C2\C[C@H]3CC[C@@H](C2)N3Cc2ccccn2)c2ccc(C(=O)N(C)C)cc2)cc1 [Cpd 113, N-Ethyl-4-[N′,N′-dimethylbenzamide-(8-pyridin-2-ylmethyl-8-aza-bicyclo[3.2.1]oct-3-ylidene)-methyl]-benzamide] | 36.6
44 | CCNC(=O)c1ccc(C(=C2CC3CCC(C2)N3Cc2ccccn2)c2ccc(NS(C)(=O)=O)cc2)cc1 [Cpd 182] | 2.71

test system: acetylcholine bromide-induced abdominal constriction response; experiment: Mouse acetylcholine bromide-induced abdominal constriction assay; format: in vivo; conditions: dose of 150 μmole/Kg p.o., 5.5 mg/kg acetylcholine bromide i.p. 30 min later, ten min observation
Method: Mouse Acetylcholine Bromide-Induced Abdominal Constriction Assay
The mouse acetylcholine-induced abdominal constriction assay (as described by Collier et al. in Brit. J. Pharmacol. Chem. Ther., 1968, 32:295-310 with minor modifications) was used to assess analgesic potency of the compounds of formula (I). The test drugs or appropriate vehicles were administered orally (p.o.) and 30 min later the animal received an intraperitoneal (i.p.) injection of 5.5 mg/kg acetylcholine bromide (Matheson, Coleman and Bell, East Rutherford, N.J.). The mice were then placed in groups of three into glass bell jars and observed for a ten min observation period for the occurrence of an abdominal constriction response (defined as a wave of constriction and elongation passing caudally along the abdominal wall, accompanied by a twisting of the trunk and followed by extension of the hind limbs). For compounds of the present invention, the percent inhibition of this response to a nociceptive stimulus (equated to % analgesia) was calculated as follows: [formula]

Row | SMILES | inhibition response (percent inhibition of abdominal constriction response, equated to % analgesia) [%]
45 | CCN(CC)C(=O)c1ccc(C(=C2CC3CCC(C2)N3C)c2ccccc2)cc1.Cl [Example 1, N,N-Diethyl-4-[(8-methyl-8-azabicyclo[3.2.1]oct-3-ylidene)phenylmethyl]benzamide Hydrochloride [1:1]] | 87

test system: not given; experiment: not given; conditions: not given

Row | SMILES | melting point [°C]
46 | CCNC(=O)c1ccc(C=C2CC3CCC(C2)N3CCC(C(=O)N(C)C)(c2ccccc2)c2ccccc2)cc1 [Cpd 107, 4-[8-(3-Dimethylcarbamoyl-3,3-diphenyl-propyl)-8-aza-bicyclo[3.2.1]oct-3-ylidenemethyl]-N-ethyl-benzamide] | 137 to 139
47 | CNC(=O)c1ccc(C=C2CC3CCC(C2)N3)cc1 [Cpd 103, 4-(8-Aza-bicyclo[3.2.1]oct-3-ylidenemethyl)-N-methyl-benzamide] | 164 to 166
48 | CCNC(=O)c1ccc(C(=C2CC3CCC(C2)N3CC(=O)c2cc(C(=O)c3ccc(Cl)cc3)cn2C)c2ccccc2)cc1 [Cpd 88, 4-[(8{2-[4-(4-Chloro-benzoyl)-1-methyl-1H-pyrrol-2-yl]-2-oxo-ethyl}-8-azabicyclo[3.2.1]oct-3-ylidene)-phenyl-methyl]-N-ethyl-benzamide] | 195 to 196
